Data on one molecule can be found in publication PMC12254823 (Acta Pharmaceutica Sinica. B, 2025).

Assay [1] has as its target H1 PA-PB1 heterodimeric complex (Influenza A virus, UniProt P15659). In kind it is biochemical.
For assay [2], the target named is PA-C K643A (Influenza A virus, UniProt P15659, K643A). In kind it is binding, influenza A virus (H1).

The structures appear in SMILES notation. “And” between values parts separate entries of the source, which are not always exact repeats. Identical values can stand only once.

`COc1ccc(NC(=S)NCc2cccc3cn[nH]c23)cc1OC` [Compound 24, 1-[(1H-Indazol-7-yl)methyl]-3-(3,4-dimethoxyphenyl)thiourea]: in assay [1], the “PA-PB1 complex co-immunoprecipitated compared to DMSO control” value is 53.5% ± 7.9% and 53.5%. Also, in assay [2], the “Melting temperature (Tm)” value stood at 50.2 ± 1.9 °C.
